From ChEMBL document CHEMBL1201862, “PubChem BioAssay data set” (2004)
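1) Cells in 96-well plates. 2) Compound, 48 h, 5 concentrations. 3) Linear interpolation between surrounding doses. 4) Unreached endpoint = highest concentration. Here, GI50 denotes the concentration required for 50% inhibition of growth.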 The source made the active and inactive calls. No stated cut-off is given here; in the data, active = GI50 up to about 1.1 µM and inactive = higher.

What was measured:
Test in all cases: inhibition of tumour cell growth, NCI panel, 48 h
SW-620 = tested on: SW-620
NCI/ADR-RES = tested on: NCI/ADR-RES
RPMI-8226 = tested on: RPMI-8226
UACC-62 = tested on: UACC-62
RXF 393 = tested on: RXF 393
M14 = tested on: M14
T47D = tested on: T47D
HCT-116 = tested on: HCT-116
IGROV-1 = tested on: IGROV-1
A549 = tested on: A549
786-0 = tested on: 786-0
TK-10 = tested on: TK-10
SNB-19 = tested on: SNB-19
Hs-578T = tested on: Hs-578T
HOP-92 = tested on: HOP-92
SK-MEL-2 = tested on: SK-MEL-2
CAKI-1 = tested on: CAKI-1
UO-31 = tested on: UO-31
OVCAR-4 = tested on: OVCAR-4
NCI-H226 = tested on: NCI-H226

| SMILES | GI50 (SW-620) | GI50 (NCI/ADR-RES) | GI50 (RPMI-8226) | GI50 (UACC-62) | GI50 (RXF 393) | GI50 (M14) | GI50 (T47D) | GI50 (HCT-116) | GI50 (IGROV-1) | GI50 (A549) | GI50 (786-0) | GI50 (TK-10) | GI50 (SNB-19) | GI50 (Hs-578T) | GI50 (HOP-92) | GI50 (SK-MEL-2) | GI50 (CAKI-1) | GI50 (UO-31) | GI50 (OVCAR-4) | GI50 (NCI-H226) |
| --- | --- | --- | --- | --- | --- | --- | --- | --- | --- | --- | --- | --- | --- | --- | --- | --- | --- | --- | --- | --- |
| C=CCC1=CC2(OC)C(=O)C(OC)(OC)C1C1C(OC)(OC)C(=O)C(OC)=CC12CC=C (stereo not drawn) | > 100 µM (inactive) | > 100 µM (inactive) | > 100 µM (inactive) | > 100 µM (inactive) | > 100 µM (inactive) | > 100 µM (inactive) | > 100 µM (inactive) | > 100 µM (inactive) | > 100 µM (inactive) | > 100 µM (inactive) | > 100 µM (inactive) | > 100 µM (inactive) | > 100 µM (inactive) | > 100 µM (inactive) | > 100 µM (inactive) | > 100 µM (inactive) | > 100 µM (inactive) | > 100 µM (inactive) | > 100 µM (inactive) |  |
| CCOC(=O)c1cc2cc(CSc3ccccc3)ccc2oc1=O | > 100 µM (inactive) | > 100 µM (inactive) | 51.9 µM (inactive) | 45.9 µM (inactive) | 39.4 µM (inactive) | 51.5 µM (inactive) | > 100 µM (inactive) | > 100 µM (inactive) | > 100 µM (inactive) | 83.4 µM (inactive) | 94.8 µM (inactive) | 57.9 µM (inactive) | 46.8 µM (inactive) | 52.1 µM (inactive) | > 100 µM (inactive) | 92.5 µM (inactive) | > 100 µM (inactive) | 43.9 µM (inactive) | > 100 µM (inactive) | > 100 µM (inactive) |
| CCOc1ccc(C2c3[nH]c4ccccc4c3CCN2C(=O)c2cccs2)cc1 (stereo not drawn) | 21.1 µM (inactive) | 6.43 µM (inactive) | 5.41 µM (inactive) | 6.04 µM (inactive) | 7.18 µM (inactive) | 37.7 µM (inactive) | 5.9 µM (inactive) | 4.8 µM (inactive) | 10.2 µM (inactive) | 7.03 µM (inactive) | 9.18 µM (inactive) | > 100 µM (inactive) | 23.8 µM (inactive) | 63.1 µM (inactive) | > 100 µM (inactive) | 78.3 µM (inactive) | 9.14 µM (inactive) | 14.2 µM (inactive) | 4.22 µM (inactive) | 3.06 µM (inactive) |
| COC12c3ccccc3-c3ccccc3C1[C@H]1C(=O)OC(=O)[C@H]12 (stereo partly drawn) | > 10 µM (inactive) | > 10 µM (inactive) | > 10 µM (inactive) |  | > 10 µM (inactive) | > 10 µM (inactive) | > 10 µM (inactive) |  | > 10 µM (inactive) |  | > 10 µM (inactive) | > 10 µM (inactive) | > 10 µM (inactive) | > 10 µM (inactive) | > 10 µM (inactive) | > 10 µM (inactive) | > 10 µM (inactive) | > 10 µM (inactive) | > 10 µM (inactive) | > 10 µM (inactive) |
| CC(C)(C)c1ccc(-c2nnc(SCc3ccc(Cl)cc3)n2-c2cccc(C(F)(F)F)c2)cc1 | 15.9 µM (inactive) | 12.4 µM (inactive) | 4.61 µM (inactive) | 22.5 µM (inactive) | 8.91 µM (inactive) | 15 µM (inactive) | 5.08 µM (inactive) | 4.71 µM (inactive) | 26.9 µM (inactive) | 7.64 µM (inactive) | 13.9 µM (inactive) | 39.4 µM (inactive) | 36.1 µM (inactive) | 45.8 µM (inactive) | 19.8 µM (inactive) | 16.8 µM (inactive) | 73.5 µM (inactive) | 11.6 µM (inactive) | 7.8 µM (inactive) | 19.7 µM (inactive) |
| CC1(C)CN=C(Nc2ccc(F)c(Cl)c2)S1 | > 100 µM (inactive) | > 100 µM (inactive) | > 100 µM (inactive) | > 100 µM (inactive) | > 100 µM (inactive) | > 100 µM (inactive) | > 100 µM (inactive) | > 100 µM (inactive) | > 100 µM (inactive) | > 100 µM (inactive) | > 100 µM (inactive) | > 100 µM (inactive) | > 100 µM (inactive) | > 100 µM (inactive) | > 100 µM (inactive) | > 100 µM (inactive) | > 100 µM (inactive) | > 100 µM (inactive) | > 100 µM (inactive) | > 100 µM (inactive) |
| CC(=O)O[C@@H]1[C@H](OC2CCCCC2(c2ccccc2)c2ccccc2)O[N+]([O-])=CC12CCCCC2 (stereo partly drawn) | 16 µM (inactive) | 15.9 µM (inactive) | 33 µM (inactive) | 17.7 µM (inactive) | 17.8 µM (inactive) | 18.7 µM (inactive) | 18.4 µM (inactive) | 17.6 µM (inactive) | 20.1 µM (inactive) | 17.7 µM (inactive) | 13.4 µM (inactive) | 16.7 µM (inactive) |  | 19.2 µM (inactive) | 24.5 µM (inactive) |  | 14.4 µM (inactive) | 17.5 µM (inactive) |  | 14.1 µM (inactive) |
| CCOC(=O)C1(C#N)OC(=O)c2cnccc21 (stereo not drawn) | > 100 µM (inactive) | > 100 µM (inactive) | > 100 µM (inactive) | > 100 µM (inactive) | > 100 µM (inactive) | > 100 µM (inactive) | > 100 µM (inactive) | > 100 µM (inactive) | > 100 µM (inactive) | > 100 µM (inactive) | > 100 µM (inactive) |  | > 100 µM (inactive) | > 100 µM (inactive) | > 100 µM (inactive) | > 100 µM (inactive) | > 100 µM (inactive) | > 100 µM (inactive) | > 100 µM (inactive) | > 100 µM (inactive) |
| O=[N+]([O-])c1nccn1CCCNc1c2ccccc2[n+]([O-])c2ccccc12 | > 100 µM (inactive) | > 100 µM (inactive) | > 100 µM (inactive) | > 100 µM (inactive) | > 100 µM (inactive) | > 100 µM (inactive) | > 100 µM (inactive) | > 100 µM (inactive) | 51.9 µM (inactive) | > 100 µM (inactive) | > 100 µM (inactive) | > 100 µM (inactive) |  | > 100 µM (inactive) | 27.5 µM (inactive) | 88.5 µM (inactive) | > 100 µM (inactive) | > 100 µM (inactive) | 50.2 µM (inactive) | 38.6 µM (inactive) |
| CCOC(=O)c1ccc(Nc2nc3ccc(C(F)(F)F)cc3nc2C(=O)OCC)cc1 | > 100 µM (inactive) | > 100 µM (inactive) | > 100 µM (inactive) | > 100 µM (inactive) | > 100 µM (inactive) | > 100 µM (inactive) | > 100 µM (inactive) | > 100 µM (inactive) | > 100 µM (inactive) | > 100 µM (inactive) | > 100 µM (inactive) | > 100 µM (inactive) | > 100 µM (inactive) | 32.9 µM (inactive) | > 100 µM (inactive) |  | 81.3 µM (inactive) | > 100 µM (inactive) |  | > 100 µM (inactive) |
| CN(Cc1nc2c(N)nc(N)nc2nc1N)c1ccc(C(=O)NC(CCC(=O)O)C(=O)O)cc1 (stereo not drawn) | 0.033 µM (active) | 0.225 µM (active) | > 75.2 µM (inactive) | 0.0603 µM (active) | > 100 µM (inactive) | 0.0615 µM (active) | > 100 µM (inactive) | < 0.01 µM (active) | 3.07 µM (inactive) |  | < 0.01 µM (active) | 0.752 µM (active) | 64.6 µM (inactive) | > 19.8 µM (inactive) | > 100 µM (inactive) | > 100 µM (inactive) | 0.0322 µM (active) | 0.561 µM (active) | > 100 µM (inactive) | > 100 µM (inactive) |
| COc1c(Cl)ccc(Cl)c1-c1nnc(-c2c(Cl)c(Cl)c(Cl)c(Cl)c2-c2nc3cc(C(=O)c4ccccc4)ccc3[nH]2)o1 | 44.1 µM (inactive) | 28.3 µM (inactive) | 23.8 µM (inactive) |  | 20.8 µM (inactive) | 50.9 µM (inactive) | > 100 µM (inactive) | 63.1 µM (inactive) | 45.5 µM (inactive) | 45.2 µM (inactive) | 73.6 µM (inactive) | > 100 µM (inactive) | 62.2 µM (inactive) | 42.2 µM (inactive) | 53.7 µM (inactive) | 37.7 µM (inactive) | > 100 µM (inactive) | 75.7 µM (inactive) | 43.5 µM (inactive) | 26.5 µM (inactive) |
| CC(=O)OCC(OC(C)=O)C(OC(C)=O)C(OC(C)=O)C(/C=N\Nc1nc2ccccc2c(=O)[nH]1)OC(C)=O (stereo not drawn) | > 100 µM (inactive) | > 100 µM (inactive) | > 100 µM (inactive) | > 100 µM (inactive) | > 100 µM (inactive) | > 100 µM (inactive) | > 100 µM (inactive) | > 100 µM (inactive) |  | > 100 µM (inactive) | > 100 µM (inactive) |  | > 100 µM (inactive) | > 100 µM (inactive) | > 100 µM (inactive) | > 100 µM (inactive) | > 100 µM (inactive) | > 100 µM (inactive) |  | > 100 µM (inactive) |
| Cc1sccc1C(=S)Nc1ccc(Cl)c(/C=N/OC(C)(C)C)c1 | 37.9 µM (inactive) | 17.8 µM (inactive) | 7.31 µM (inactive) | 16.6 µM (inactive) | 17.2 µM (inactive) | 17.9 µM (inactive) | 10.6 µM (inactive) | 14.1 µM (inactive) | 13.5 µM (inactive) | 20.2 µM (inactive) | 21.1 µM (inactive) | 19.1 µM (inactive) |  | 22.3 µM (inactive) | 13.9 µM (inactive) | 15.5 µM (inactive) | 12 µM (inactive) | 12.5 µM (inactive) | 15.2 µM (inactive) | 13.9 µM (inactive) |
